Entries after “also recorded” stand apart in the source; their conditions may differ.
Key:
Type in all cases: cell-based, Mycobacterium tuberculosis
[1] = tested on: ΔndhA mutant
[2] = tested on: anaerobic nonreplicating MTb cells; assay: Anaerobic cidal activity on nonreplicating cells
[3] = tested on: nuoG deletion mutant; conditions: results not shown

Question: For `O=C(CSc1nc2ccccc2c(=O)[nH]1)NC1CCCCC1` [Compound 1, N-Cyclohexyl-2-((4-oxo-3,4-dihydroquinazolin-2-yl)thio)acetamide], which “Kill of ΔndhA mutant” value [1] is on record?
Answer: ~2 log

Question: What about the “Anaerobic cidal activity / viability of anaerobic nonreplicating cells” value [2] of the same compound?
Answer: Lack of anaerobic cidal activity; also recorded: did not affect viability

Question: And the “MIC to nuoG deletion mutant compared with WT” value [3]?
Answer: indistinguishable from WT cells
